Laboratory results as given in the supplement of paper PMC11061612.

Columns and labels:
Experiment in all cases: Bliss excess, mean over the matrix (fraction); higher = more synergy
[1] = tested on: ST486 (Burkitt's Lymphoma)
Procedure, shortened: (§1)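 After 24 hours at 37°C and 5% CO2 in 1536-well plates, cells in DMEM/F12 or RPMI plus 10% FBS received two-drug dose matrices for 72 hours. Viability came from CellTiter-Glo 2.0 luminescence and was scaled as inhibition, anchored at 0 by vehicle wells and at 1 by blank wells. Combination Emax is taken as the second-highest inhibition in the matrix, and Bliss excess as the observed combination effect less EA + EB − EA·EB, with EA and EB the single-agent effects.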

[2] = tested on: JHH-4 (Hepatocellular Carcinoma)
Procedure, shortened: as §1

[3] = tested on: KP-3 (Pancreatic Carcinoma)
Procedure, shortened: as §1

[4] = tested on: H9 (T-Cell Non-Hodgkin's Lymphoma)
Procedure, shortened: as §1

[5] = tested on: T-T (Esophageal Squamous Cell Carcinoma)
Procedure, shortened: as §1

[6] = tested on: HCC1419 (Breast Carcinoma)
Procedure, shortened: as §1

G-361 (Melanoma) = tested on: G-361 (Melanoma)
Procedure, shortened: as §1

[7] = tested on: NCCIT (Other Solid Carcinomas)
Procedure, shortened: as §1

[8] = tested on: KYSE-270 (Esophageal Squamous Cell Carcinoma)
Procedure, shortened: as §1

[9] = tested on: NCI-H3122 (Lung Adenocarcinoma)
Procedure, shortened: as §1

[10] = tested on: HCC1187 (Breast Carcinoma)
Procedure, shortened: as §1

[11] = tested on: CW-2 (Colorectal Carcinoma)
Procedure, shortened: as §1

[12] = tested on: NCI-H526 (Small Cell Lung Carcinoma)
Procedure, shortened: as §1

[13] = tested on: SK-GT-4 (Esophageal Adenocarcinoma)
Procedure, shortened: as §1

[14] = tested on: CHSA8926 (Chondrosarcoma)
Procedure, shortened: as §1

[15] = tested on: SK-GT-2 (Gastric Carcinoma)
Procedure, shortened: as §1

[16] = tested on: MOLM-13 (Acute Myeloid Leukemia)
Procedure, shortened: as §1

NCI-H2731 (Mesothelioma) = tested on: NCI-H2731 (Mesothelioma)
Procedure, shortened: as §1

[17] = tested on: SU-DHL-5 (B-Cell Non-Hodgkin's Lymphoma)
Procedure, shortened: as §1

[18] = tested on: RPMI-8226 (Plasma Cell Myeloma)
Procedure, shortened: as §1

| SMILES | Bliss excess [1] | Bliss excess [2] | Bliss excess [3] | Bliss excess [4] | Bliss excess [5] | Bliss excess [6] | Bliss excess (G-361 (Melanoma)) | Bliss excess [7] | Bliss excess [8] | Bliss excess [9] | Bliss excess [10] | Bliss excess [11] | Bliss excess [12] | Bliss excess [13] | Bliss excess [14] | Bliss excess [15] | Bliss excess [16] | Bliss excess (NCI-H2731 (Mesothelioma)) | Bliss excess [17] | Bliss excess [18] |
| --- | --- | --- | --- | --- | --- | --- | --- | --- | --- | --- | --- | --- | --- | --- | --- | --- | --- | --- | --- | --- |
| COc1cc2ncnc(Nc3ccc(F)c(Cl)c3)c2cc1OCCCN1CCOCC1 [Gefitinib] + CC(C)n1c(=O)n(C)c2cnc3cc(F)c(-c4ccc(OCCCN5CCCCC5)nc4)cc3c21 [AZD1390] (first compound max 10 µM, 7x7, partner max 0.3 µM) | -0.0874 | -0.0751 | -0.074 | -0.0723 | -0.0411 | -0.0216 | -0.0718 | -0.0466 | -0.003 | -0.0775 | -0.04 | -0.031 | -0.0342 | -0.0846 | -0.113 | -0.0382 | -0.0462 | -0.0434 | -0.0317 | -0.0547 |
| Cc1c2c(nn1C)CSCc1cc(n(C)n1)CSc1cc(c3ccccc3c1)OCCCc1c(C(=O)O)n(C)c3c-2c(Cl)ccc13 [AZD5991] + C[C@@H](Nc1cc(F)cc(F)c1)c1cc(C(=O)N(C)C)cc2c(=O)cc(N3CCOCC3)oc12 [AZD8186] (first compound max 1 µM, 7x7, partner max 3 µM) | -0.0659 | -0.0164 | -0.0351 | -0.0485 | 0.0265 | -0.0038 | -0.0082 | -0.0176 | 0.027 | -0.0639 | -0.0176 | 0.0051 | 0.0192 | -0.0185 | 0.091 | 0.015 | -0.0351 | -0.0626 | 0.0109 | -0.0219 |
| C=CCn1c(=O)c2cnc(Nc3ccc(N4CCN(C)CC4)cc3)nc2n1-c1cccc(C(C)(C)O)n1 [AZD1775] + C[C@@H]1COCCN1C2=NC(=NC(=C2)C3(CC3)[S@](=N)(=O)C)C4=C5C=CNC5=NC=C4 [AZD6738] (first compound max 1 µM, partner max 10 µM) | -0.0044 | 0.0007 | -0.0075 | 0.0607 | 0.0089 | -0.0034 | -0.0177 | 0.0526 | 0.0567 | 0.0165 | 0.0558 | 0.0554 | 0.0576 | 0.0046 | -0.0268 | -0.0189 | 0.0233 | 0.0444 | 0.0446 | 0.0407 |
| COc1cccc2c1C(=O)c1c(O)c3c(c(O)c1C2=O)C[C@@](O)(C(=O)CO)C[C@@H]3O[C@H]1C[C@H](N)[C@H](O)[C@H](C)O1 [Doxorubicin] + Cc1cc2ncnn2cc1Nc1ncc2c(n1)n(C1CCOCC1)c(=O)n2C [AZD7648] (first compound max 1 µM, 7x7, partner max 10 µM) | 0.0895 | 0.0376 | -0.0405 | 0.0887 | 0.0318 | -0.128 | 0.0791 | -0.0142 | 0.0494 | 0.031 | 0.114 | -0.0002 | 0.0586 | -0.0081 | -0.0053 | -0.0051 | 0.0551 | 0.0506 | 0.111 | 0.124 |
| CC1(C)CCC(CN2CCN(c3ccc(C(=O)NS(=O)(=O)c4ccc(NCC5CCOCC5)c([N+](=O)[O-])c4)c(Oc4cnc5[nH]ccc5c4)c3)CC2)=C(c2ccc(Cl)cc2)C1 [Venetoclax] + C1CN(CCC1(C(=O)N[C@@H](CCO)C2=CC=C(C=C2)Cl)N)C3=NC=NC4=C3C=CN4 [Capivasertib] (first compound max 1 µM, 7x7, partner max 3 µM) | -0.0348 | -0.054 | -0.0257 | -0.02 | 0.0155 | -0.057 | -0.0618 | -0.0285 | 0.0002 | -0.0592 | -0.0227 | -0.0259 | -0.0095 | -0.0728 | -0.0364 | -0.0211 | 0.0074 | -0.066 | -0.0236 | -0.0102 |
| Cc1cc2ncnn2cc1Nc1ncc2c(n1)n(C1CCOCC1)c(=O)n2C [AZD7648] + C=CCn1c(=O)c2cnc(Nc3ccc(N4CCN(C)CC4)cc3)nc2n1-c1cccc(C(C)(C)O)n1 [AZD1775] (first compound max 10 µM, partner max 1 µM) | -0.0316 | 0.04 | 0.0283 | 0.0346 | 0.002 | -0.0156 | 0.0081 | 0.0237 | 0.0028 | -0.0402 | 0.0302 | 0.0419 | 0.013 | -0.0515 | 0.0382 | -0.047 | -0.0255 | -0.0225 | 0.105 | 0.0062 |
| CC1(C)CCC(CN2CCN(c3ccc(C(=O)NS(=O)(=O)c4ccc(NCC5CCOCC5)c([N+](=O)[O-])c4)c(Oc4cnc5[nH]ccc5c4)c3)CC2)=C(c2ccc(Cl)cc2)C1 [Venetoclax] + Cn1cnc2c(F)c(Nc3ccc(Br)cc3Cl)c(C(=O)NOCCO)cc21 [Selumetinib] (first compound max 1 µM, 7x7, partner max 3 µM) | -0.141 | -0.0402 | -0.042 | 0.0054 | 0.009 | -0.0413 | -0.0154 | -0.0252 | -0.0202 | -0.0309 | -0.0161 | 0.0239 | -0.011 | -0.0512 | -0.0455 | -0.0251 | 0.0783 | -0.0525 | 0.0355 | 0.0187 |
| CC1(C)CCC(CN2CCN(c3ccc(C(=O)NS(=O)(=O)c4ccc(NCC5CCOCC5)c([N+](=O)[O-])c4)c(Oc4cnc5[nH]ccc5c4)c3)CC2)=C(c2ccc(Cl)cc2)C1 [Venetoclax] + CN(C)CCCOc1ccc(-c2ccc3ncc4c(c3c2)n(C2CCOCC2)c(=O)n4C)cn1 [AZD0156] (first compound max 1 µM, 7x7, partner max 1 µM) | 0.0106 | -0.0078 | -0.042 | -0.0035 | 0.0197 | -0.0156 | -0.0123 | 0.0086 | 0.0107 | -0.0656 | -0.0071 | 0.0285 | 0.0393 | -0.0544 | -0.0249 | 0.005 | -0.126 | -0.029 | 0.0045 | 0.0405 |
| C=CCn1c(=O)c2cnc(Nc3ccc(N4CCN(C)CC4)cc3)nc2n1-c1cccc(C(C)(C)O)n1 [AZD1775] + O=C(c1cc(Cc2n[nH]c(=O)c3ccccc23)ccc1F)N1CCN(C(=O)C2CC2)CC1 [Olaparib] (first compound max 1 µM, partner max 10 µM) | -0.0197 | -0.0254 | -0.0118 | -0.0075 | -0.002 | -0.047 | -0.0217 | -0.0458 | -0.0166 | -0.0111 | 0.0546 | 0.0127 | -0.0152 | -0.0709 | -0.0167 | -0.0139 | 0.0405 | -0.0438 | 0.0215 | -0.0366 |
| CC1(C)CCC(CN2CCN(c3ccc(C(=O)NS(=O)(=O)c4ccc(NCC5CCOCC5)c([N+](=O)[O-])c4)c(Oc4cnc5[nH]ccc5c4)c3)CC2)=C(c2ccc(Cl)cc2)C1 [Venetoclax] + COc1cc(Nc2ncc3c(n2)-c2ccc(Cl)cc2C(c2c(F)cccc2OC)=NC3)ccc1C(=O)O [Alisertib] (first compound max 1 µM, 7x7, partner max 10 µM) | -0.133 | -0.0328 | -0.0376 | -0.0674 | 0.0325 | -0.0573 | 0.0863 | 0.0159 | -0.016 | -0.0278 | -0.0999 | -0.0094 | 0.194 | -0.107 | -0.025 | -0.0274 | 0.0371 | -0.0311 | -0.003 | 0.0721 |
| COc1cccc(OCCCN)c1-c1cc(Nc2cnc(C#N)cn2)n[nH]1 [Prexasertib] + O=C(c1cc(Cc2n[nH]c(=O)c3ccccc23)ccc1F)N1CCN(C(=O)C2CC2)CC1 [Olaparib] (first compound max 1 µM, 7x7, partner max 10 µM) | -0.0406 | 0.0296 | -0.0444 | -0.0088 | 0.0186 | -0.0229 | -0.0411 | -0.103 | -0.0789 | 0.0161 | -0.0164 | -0.0281 | -0.0214 | -0.0984 | -0.0147 | -0.0472 | -0.0224 | -0.0228 | -0.0097 | 0.0124 |
| C[C@@H]1COCCN1c1cc(C2([S@](C)(=N)=O)CC2)nc(-c2ccnc3[nH]ccc23)n1 [AZD6738] + O=C(c1cc(Cc2n[nH]c(=O)c3ccccc23)ccc1F)N1CCN(C(=O)C2CC2)CC1 [Olaparib] (first compound max 10 µM, 7x7, partner max 10 µM) | -0.0026 | -0.0325 | 0.0143 | 0.0058 | -0.0237 | -0.0175 | -0.0052 | 0.0227 | -0.013 | 0.0446 | 0.0586 | 0.0008 | -0.0072 | -0.046 | 0.01 | 0.0148 | -0.0526 | -0.0266 | 0.002 | -0.0189 |
| COc1cccc(OCCCN)c1-c1cc(Nc2cnc(C#N)cn2)n[nH]1 [Prexasertib] + C[C@@H]1COCCN1C2=NC(=NC(=C2)C3(CC3)[S@](=N)(=O)C)C4=C5C=CNC5=NC=C4 [AZD6738] (first compound max 1 µM, 7x7, partner max 10 µM) | -0.0336 | 0.0024 | 0.0162 | -0.0023 | 0.0178 | -0.0473 | 0.045 | 0.011 | -0.0323 | 0.0704 | 0.0754 | 0.0785 | 0.0283 | -0.0233 | 0.0171 | -0.0043 | -0.0051 | -0.0089 | -0.0147 | -0.006 |
| COc1cccc(OCCCN)c1-c1cc(Nc2cnc(C#N)cn2)n[nH]1 [Prexasertib] + CCc1c2c(nc3ccc(O)cc13)-c1cc3c(c(=O)n1C2)COC(=O)[C@]3(O)CC [SN-38] (first compound max 1 µM, 7x7, partner max 0.3 µM) | 0.0412 | -0.0289 | 0.0321 | -0.0004 | 0.12 | -0.0098 | -0.0219 | 0.0269 | 0.0028 | -0.002 | 0.164 | -0.0035 | -0.0164 | -0.0304 | -0.0024 | 0.034 | 0.0073 | 0.0108 | 0.0023 | 0.0686 |
